This is an account of results in PubChem BioAssay AID1996.

As a reminder, the solubility (kinetic) is the concentration staying in solution when a stock, usually in DMSO, is diluted into the medium.

≈ marks a conversion by molar mass, not a printed value.

The conditions of this data set: buffer; pH 7.4; 200.0 µM.
`COc1ccc(CC(=O)NCCCCc2ccccc2)cc1OC`: the solubility (kinetic) is above 49.1 µg/mL. In the case of `Cc1ccc(OCC(=O)Nc2ccccc2F)cc1C` it was 3.2 µg/mL (≈ 11.7 µM).

Take `COc1ccc(Nc2ncnc3sccc23)cc1OC`: the kinetic solubility was 36.9 µg/mL (≈ 128 µM). To `Cc1ccc(Cl)cc1NC(=O)CN1CCOCC1` belongs above 40.3 µg/mL; to `Cc1ccccc1CC(=O)NC1CCN(C)CC1`, above 37 µg/mL. In the case of `Cc1onc(C(=O)Nc2cccc(C(F)(F)F)c2)c1[N+](=O)[O-]` it was 32.4 µg/mL (≈ 103 µM); in that of `O=C(Nc1ccccc1C(=O)Nc1ccccc1)c1ccccc1Br`, 0.7 µg/mL (≈ 1.77 µM). In the case of `CCOc1ccccc1NC(=S)NC(=O)C1CC1` it was 2.6 µg/mL (≈ 9.84 µM); in that of `CC(C)(C)C(=O)COc1ccccc1[N+](=O)[O-]`, above 35.6 µg/mL. `O=C(COC(=O)c1ccccc1O)Nc1ccc2ccccc2c1`: the solubility (kinetic) turned out to be 6.2 µg/mL (≈ 19.3 µM). As to `COc1ccc(OC)c(NC(=O)Cc2cccs2)c1`, the solubility (kinetic) was found to be 30.4 µg/mL (≈ 110 µM). In the case of `N#Cc1ccccc1NC(=O)COC(=O)c1ccc(F)cc1F` it was 11.1 µg/mL (≈ 35.1 µM); in that of `O=C(CCC(=O)Nc1ccc(F)cc1)N/N=C/c1cccnc1`, above 47.1 µg/mL; in that of `COc1ccc(Nc2nc(C)nc3c2oc2ccccc23)c(OC)c1`, below 0.2 µg/mL. `O=C(Nc1ccccc1N1CCCC1)C1CCCO1` (configuration not stated) registered a solubility (kinetic) above 39.1 µg/mL. In the case of `COc1cccc(CNCc2ccco2)c1O.O=C(O)C(=O)O` it was above 48.5 µg/mL; in that of `CC(C)CNc1nc(N)c([N+](=O)[O-])c(NCc2ccccc2)n1`, below 0.1 µg/mL; in that of `O=C(Nc1ccccc1C(F)(F)F)N1CCN(c2ccccn2)CC1`, 49.9 µg/mL (≈ 142 µM).

`Cc1ccc2c(Cl)c(C(=O)NC3CC3)sc2c1` had a kinetic solubility below 0.6 µg/mL. In the case of `N#C/C(=C/c1cccc(O)c1)C(=O)NCc1ccc(Cl)cc1` it was 1.3 µg/mL (≈ 4.16 µM); in that of `COc1cc2c(cc1OC)CN(C(=O)COc1ccccc1C#N)CC2`, 15 µg/mL (≈ 42.6 µM); in that of `CC(=O)NC1CCN(CC(=O)Nc2cccc([N+](=O)[O-])c2)CC1`, 43.7 µg/mL (≈ 136 µM). To `Nc1cc(C(=O)OCC(=O)NCCC2=CCCCC2)ccc1Cl` belongs 9.4 µg/mL (≈ 27.9 µM). With `COc1ccc(Cl)cc1NC(=O)CN1CCCCCC1`, the solubility (kinetic) was found to be 2.1 µg/mL (≈ 7.08 µM). In the case of `O=[N+]([O-])c1ccc(Cl)cc1N1CCCCC1` it was below 0.3 µg/mL; in that of `CN(C(=O)COC(=O)c1ccc(Br)c(S(=O)(=O)N2CCOCC2)c1)C1CCCCC1`, above 75.5 µg/mL; in that of `OC1CCC(Nc2ncnc3sccc23)CC1` (configuration not stated), above 37.4 µg/mL. In turn, `CC(NCCC1(Cc2ccccc2Cl)CCOC(C)(C)C1)c1cccs1` (configuration not stated) registered a solubility (kinetic) of 46.3 µg/mL (≈ 118 µM). To `Cc1cc(C)c(C#N)c(N2CCN(c3ccccc3F)CC2)n1` belongs 3.8 µg/mL (≈ 12.2 µM); to `COC(=O)Cc1ccc(NC(=S)NCCO)cc1`, 39.3 µg/mL (≈ 146 µM); to `COc1ccc2cc(C(=O)NCc3ccccc3)[nH]c2c1.Cl`, 1 µg/mL. To `O=C(COC(=O)Cc1ccccc1F)NCCc1ccccc1` belongs above 47.3 µg/mL; to `CN1C(=O)/C(=C\c2ccco2)N=C1c1ccc(Cl)cc1Cl`, 33 µg/mL (≈ 103 µM); to `Cc1nc(=S)c2c([nH]1)-c1ccccc1CC21CCCCC1`, 0.3 µg/mL (≈ 1.01 µM).

As to `Cc1cccn2c(=O)nc(SCC(=O)NCc3ccco3)nc12`, the kinetic solubility is above 49.6 µg/mL. In the case of `CCC(=O)N1CCN(c2ccnc3cc(Cl)ccc23)CC1` it was 40.4 µg/mL (≈ 133 µM); in that of `COc1cc(OC)c(OC)cc1/C=C1/C(=O)N=C(N)N1C`, 34.5 µg/mL (≈ 118 µM); in that of `CC1CCCC(C)N1C(=O)COC(=O)CCC(=O)c1cccs1` (configuration not stated), above 50.6 µg/mL. To `Cc1cc(SCC(=O)c2ccc(Cl)cc2)nc(=O)[nH]1` belongs 16.5 µg/mL (≈ 56 µM); to `Cc1nc2c(C)cccc2c2c1CCS2`, 0.5 µg/mL (≈ 2.32 µM); to `O=C(c1ccccc1)N1CCCCC(Cl)C1=O` (configuration not stated), above 37.8 µg/mL. In the case of `CC1CN(S(=O)(=O)c2cccc(C(=O)N3CCC(C(N)=O)CC3)c2)CC(C)O1` (configuration not stated) it was above 61.4 µg/mL; in that of `CN1CCN(S(=O)(=O)c2cccc(C(=O)Nc3cccc([N+](=O)[O-])c3)c2)CC1`, 59.7 µg/mL (≈ 148 µM).

For the compound `O=C(NC(=O)c1ccccc1)Nc1ccccn1`, the solubility (kinetic) worked out at 9.5 µg/mL (≈ 39.4 µM).

As for `Cc1noc(C)c1CSc1ccccc1C(=O)OC(C)C(N)=O` (configuration not stated), the kinetic solubility was 11.5 µg/mL (≈ 34.4 µM). In the case of `CC(C)C1Cc2nc(Cl)c(C#N)cc2CO1` (configuration not stated) it was 24.8 µg/mL (≈ 105 µM). `COc1cccc(C(=O)OCC(=O)c2[nH]c(C)c(C(C)=O)c2C)c1`: the solubility (kinetic) turned out to be 2.1 µg/mL (≈ 6.38 µM).

`O=c1c2ccccc2ncn1CCCCOc1ccccc1F` registered a kinetic solubility of 37.3 µg/mL (≈ 119 µM). Take `Cc1cc(C)nc(NC(=O)/C=C/c2ccc(Cl)cc2)n1`: the solubility (kinetic) was 42.1 µg/mL (≈ 146 µM). `O=C(CN1C(=O)COc2ccccc21)NCCCN1CCCC1` showed a solubility (kinetic) above 47.6 µg/mL.

The compound `CC1CCCN(C2(O)C(=O)Nc3ccc(Br)cc32)C1` (configuration not stated) showed a kinetic solubility above 48.8 µg/mL. To `CCc1ccc2oc(C(=O)Nc3nonc3C)c(C)c2c1` belongs below 0.2 µg/mL.
